Data taken from patent publication US20220184003A1, “Formulations of Cannabidiol Derivatives and Their Use as Modulators of Cannabinoid Receptor Type 2 (CB2)” (EMERALD HEALTH PHARMACEUTICALS INC, priority 2019, published 2022).

Assay: Log D determination (octanol / phosphate buffer pH 7.4)
Conditions: octanol / 0.1 M phosphate buffer pH 7.4, pH 7.4
Description: Lipophilicity is a key determinant of the PK behavior of drugs. It can influence distribution into tissues, absorption and the binding characteristics of a drug, as well as being an important factor in determining the solubility of a compound. Log D (distribution co-efficient) is used as a measure of lipophilicity.
The solution was transferred to tubes, centrifuged and the supernatant is drawn off the top, leaving any solid compound in the bottom. This supernatant was then syringe filtered through 0.2 μm filters to produce the initial solution. Three vials were prepared containing values. […] The vials were mixed to equilibrium, then centrifuged to ensure the two phases were fully separated before the octanol was removed and the buffer samples analyzed. For the quantitative analysis, the aqueous solutions were analyzed by LC MS/MS. The amount of VCE-004.8 in each vial was quantified against a 6 points standard curve which was produced by serially diluting the initial solution. Log D was calculated using the equation, shown in FIG. 7, wherein ConcINITlAL is a concentration of compound in the initial aqueous solution, ConcFINAL is a concentration of compound in final aqueous phase, Vaq is a volume of aqueous phase, and Voct is a volume of octanol phase.

For `C=C(C)[C@@H]1CCC(C)=C[C@H]1c1c(O)cc(CCCCC)cc1O` [CBD, cannabidiol], the logD was 5.44.
